What was measured:
[1] = log P by HPLC (OECD Guideline 117), method [b] neutral range; type: physicochemical; conditions: HPLC; for logP[b]: method [b] neutral range; for chromatographic logP: reversed-phase C18 HPLC column, neutral range, pH 7.8
Method: (§1) The log P values were determined analogously to OECD Guideline 117 (EC Directive 92/69/EEC) by HPLC (high-performance liquid chromatography) using reversed-phase columns (C 18), by the following methods:
[b] The LC-MS determination in the neutral range is effected at pH 7.8 with 0.001 molar aqueous ammonium hydrogencarbonate solution and acetonitrile as eluents; linear gradient from 10% acetonitrile to 95% acetonitrile.

Meloidogyne incognita = Meloidogyne incognita test (MELGIN); type: in vivo; conditions: application rate of 20 ppm; after 14 days, by formation of galls
Method: Meloidogyne Incognita Test (MELGIN)
• Solvent: 125.0 parts by weight of acetone
To produce an appropriate active ingredient formulation, 1 part by weight of active ingredient is mixed with the specified amounts of solvent and the concentrate is diluted to the desired concentration with water.
Vessels are filled with sand, active ingredient solution, an egg/larvae suspension of the southern root-knot nematode (Meloidogyne incognita) and lettuce seeds. The lettuce seeds germinate and the plants develop. The galls develop on the roots
After 14 days, the nematicidal efficacy in % is determined by the formation of galls. 100% means that no galls have been found; 0% means that the number of galls on the treated plants corresponds to the untreated control.

[2] = log P by HPLC (OECD Guideline 117), method [a] acidic range; type: physicochemical; conditions: for logP[a]: HPLC, method [a] acidic range; for chromatographic logP: reversed-phase C18 HPLC column, acidic range
Method: as §1
[a] The LC-MS determination in the acidic range is effected at pH 2.7 with 0.1% aqueous formic acid and acetonitrile (contains 0.1% formic acid) as eluents; linear gradient from 10% acetonitrile to 95% acetonitrile.

Tetranychus urticae = Tetranychus urticae spray test, OP-resistant (TETRUR); type: in vivo; conditions: application rate of 500 g/ha, after 6 days; for pest or weed control at 500 g/ha: Tetranychus urticae, 144 h, read-out: efficacy
Outline: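 Bean leaf discs infested with all stages of an OP-resistant Tetranychus urticae strain sprayed with compound in acetone/DMF with alkylaryl polyglycol ether emulsifier, diluted in water. Efficacy in % scored after 6 days; 100% means all mites killed.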

Phaedon cochleariae = Phaedon cochleariae spray test (PHAECO); type: in vivo; conditions: after 7 days; for pest or weed control at 500 g/ha: Phaedon cochleariae, 168 h, read-out: efficacy
Method: Phaedon cochleariae—Spray Test (PHAECO)
• Solvent: 78.0 parts by weight of acetone • 1.5 parts by weight of dimethylformamide • Emulsifier: 0.5 part by weight of alkylaryl polyglycol ether
To produce an appropriate active ingredient formulation, 1 part by weight of active ingredient is mixed with the specified amounts of solvent and emulsifier, and the concentrate is diluted to the desired concentration with emulsifier-containing water.
Discs of Chinese cabbage leaves (Brassica pekinensis) are sprayed with an active ingredient formulation of the desired concentration and, after drying, populated with larvae of the mustard beetle (Phaedon cochleariae).
After 7 days, the efficacy in % is determined 100% means that all beetle larvae have been killed; 0% means that none of the beetle larvae have been killed.

Boophilus microplus = Boophilus microplus injection test (BOOPMI Inj); type: in vivo; conditions: application rate of 20 μg/animal, assessed after 7 days by laying of fertile eggs
Method: Use Examples Boophilus microplus Injection Test (BOOPMI Inj) • Solvent: dimethyl sulphoxide
To prepare an appropriate active ingredient formulation, 10 mg of active ingredient are mixed with 0.5 ml of solvent and the concentrate is diluted with solvent to the desired concentration.
1 μl of the active ingredient solution is injected into the abdomen of 5 engorged adult female cattle ticks (Boophilus microplus). The animals are transferred into dishes and kept in a climate-controlled room.
The efficacy is assessed after 7 days by laying of fertile eggs. Eggs which are not visibly fertile are stored in a climate-controlled cabinet until the larvae hatch after about 42 days.
An efficacy of 100% means that none of the ticks has laid any fertile eggs; 0% means that all the eggs are fertile.

[3] = pH 2.7, HPLC method [a], read-out: logP[a]
[4] = pH 2.7, HPLC, pH 2.7, read-out: log P[a]

SMILES	logP[b] [1]	logP[a] [2]	nematicidal efficacy (Meloidogyne incognita) [%]	efficacy (Tetranychus urticae) [%]	efficacy (Phaedon cochleariae; application rate of 500 g/ha) [%]	also measured
COc1nn(-c2ccc(Br)c([S+]([O-])CC(F)(F)F)c2)c(=O)n1C1CC1 (centres unmarked) [Example 110]	2.95	3.00	100			
Cc1cc(F)c(-n2nc(C(F)(F)F)n(N(C)C)c2=O)cc1[S+]([O-])CC(F)(F)F (centres unmarked) [Example 213]	3.09	3.16	90	90		
Cc1cc(F)c(-n2nc(C(F)(F)F)n(N(C)C)c2=O)cc1SCC(F)(F)F [Example 214]	4.15	4.24	90			
Cc1ccc(-n2nc(OCC3CC3)n(C3CC3)c2=O)cc1SCC(F)(F)F [Example 135]	4.56	4.60	90			
CC(CC(C)C)=Nn1c(C)nn(-c2cc(SCC(F)(F)F)c(C)cc2F)c1=O [Example 202]	3.98	4.06	100	100		
COc1nn(-c2cc(SCC(F)(F)F)c(Cl)cc2Cl)c(=O)n1C1CC1 [Example 107]	3.42	3.46	90			
Cc1cc(F)c(-n2nc(OCC(C)(C)C)n(C)c2=O)cc1SCC(F)(F)F [Example 150]	4.29	4.35	90	100		
Cc1ccc(-n2nc(OCC3CC3)n(C)c2=O)cc1SCC(F)(F)F [Example 145]	4.19	4.20	100			
CCC(C)Oc1nn(-c2ccc(C)c(SCC(F)(F)F)c2)c(=O)n1C1CC1 (centres unmarked) [Example 142]	4.96	5.01	90			
Cc1cc(F)c(-n2nc(C)n(C)c2=O)cc1SCC(F)(F)F [Example 10, 2-{2-Fluoro-4-methyl-5-[(2,2,2-trifluoroethyl)sulphanyl]phenyl}-4,5-dimethyl-2,4-dihydro-3H-1,2,4-triazol-3-one]						pest or weed control at 500 g/ha (Tetranychus urticae): 90%; pest or weed control at 500 g/ha (Phaedon cochleariae; application rate of 500 g/ha): 100%; chromatographic logP [1]: 2.38; chromatographic logP [2, 3]: 2.42; chromatographic logP [2, 4]: 2.42
C=C(C)CCOc1nn(-c2ccc(C)c(SCC(F)(F)F)c2)c(=O)n1C1CC1 [Example 138]	4.96	5.01	90			
C=CCn1c(OC)nn(-c2cc([S+]([O-])CC(F)(F)F)c(C)cc2F)c1=O (racemic) [Example 183]	2.21	2.24		100	100	
COc1nn(-c2ccc(Cl)c(SCC(F)(F)F)c2)c(=O)n1C1CC1 [Example 108]	3.84	3.91	90			
COc1nn(-c2cc([S+]([O-])CC(F)(F)F)c(Cl)cc2F)c(=O)n1C (centres unmarked) [Example 98]	2.10	2.12		100		efficacy (Phaedon cochleariae; application rate of 100 g/ha): 83%
C=CCn1c(OC)nn(-c2ccc(C)c(SCC(F)(F)F)c2)c1=O [Example 176]	3.81	3.87		90	100	
COc1nn(-c2ccc(Br)c(SCC(F)(F)F)c2)c(=O)n1C1CC1 [Example 111]	3.93	4.01	100			
Cc1cc(F)c(-n2nc(NC(C)C)n(N)c2=O)cc1[S+]([O-])CC(F)(F)F (centres unmarked) [Example 225]	1.83	1.87		100	100	
Cc1cc(F)c(N2CC(OC3CCCC3)=CC2=O)cc1SCC(F)(F)F [Example 329, 4-(Cyclopentyloxy)-1-{2-fluoro-4-methyl-5-[(2,2,2-trifluoroethyl)sulphanyl]phenyl}-1,5-dihydro-2H-pyrrol-2-one]						pest or weed control at 500 g/ha (Tetranychus urticae): 90%; pest or weed control at 500 g/ha (Phaedon cochleariae; application rate of 500 g/ha): 100%; chromatographic logP [1]: 4.06; chromatographic logP [2, 3]: 4.2; chromatographic logP [2, 4]: 4.2
COc1nn(-c2ccc(C#N)c([S+]([O-])CC(F)(F)F)c2)c(=O)n1C1CC1 (centres unmarked) [Example 118]	2.43	2.47	100			
Cc1cc(F)c(N2CC(OC3CCCC3)=CC2=O)cc1[S+]([O-])CC(F)(F)F (centres unmarked) [Example 336, 4-(Cyclopentyloxy)-1-{2-fluoro-4-methyl-5-[(2,2,2-trifluoroethyl)sulphinyl]phenyl}-1,5-dihydro-2H-pyrrol-2-one]						pest or weed control at 500 g/ha (Tetranychus urticae): 90%; pest or weed control at 500 g/ha (Phaedon cochleariae; application rate of 500 g/ha): 83%; chromatographic logP [1]: 2.91; chromatographic logP [2, 3]: 2.97; chromatographic logP [2, 4]: 2.97
CNc1nn(-c2cc([S+]([O-])CC(F)(F)F)c(C)cc2F)c(=O)n1N (centres unmarked) [Example 219]	1.29	1.32		90	100	
CCN(CC)c1nn(-c2cc([S+]([O-])CC(F)(F)F)c(C)cc2F)c(=O)n1N (centres unmarked) [Example 223]	2.18	2.23		90	100	
C=C(C)CCOc1nn(-c2ccc(C)c([S+]([O-])CC(F)(F)F)c2)c(=O)n1C1CC1 (centres unmarked) [Example 139]	3.60	3.67	90			

Further lines, with some results ahead:

logP[b] [1]	logP[a] [2]	SMILES	nematicidal efficacy (Meloidogyne incognita) [%]	efficacy (Tetranychus urticae) [%]	efficacy (Phaedon cochleariae; application rate of 500 g/ha) [%]	also measured
2.81	2.87	Cc1cc(F)c(N2CC(OCc3ccccc3)=CC2=O)cc1[S+]([O-])CC(F)(F)F (centres unmarked) [Example 323]	90			
3.01	3.05	Cc1cc(F)c(-n2nnn(CC(F)(F)C(F)(F)F)c2=O)cc1[S+]([O-])CC(F)(F)F (racemic) [Example 446]	100	90		
3.58	3.64	COc1nn(-c2cc(SCC(F)(F)F)c(C)cc2F)c(=O)n1CC1CC1 [Example 390]		100	100	efficacy (Boophilus microplus): 100%
4.04	4.09	Cc1cc(F)c(-n2nnn(CC(F)(F)C(F)(F)F)c2=O)cc1SCC(F)(F)F [Example 444]	90	100		
3.34	3.40	Cc1cc(F)c(-n2nc(C)n(-c3ccccc3)c2=O)cc1SCC(F)(F)F [Example 350]		100	83	
2.55	2.61	COC1=CC(=O)N(c2ccc(C(F)(F)F)c([S+]([O-])CC(F)(F)F)c2)C1 (centres unmarked) [Example 321]			100	efficacy (Boophilus microplus): 100%
1.98	2.00	Cc1cc(F)c(-n2nc(Cl)n(C)c2=O)cc1[S+]([O-])CC(F)(F)F (centres unmarked) [Example 437]		90	83	
4.18	4.23	Cc1cc(F)c(-n2nc(OCC(Cl)(Cl)Cl)n(C)c2=O)cc1SCC(F)(F)F [Example 376]		100	100	
3.36	3.43	Cc1cc(F)c(-n2ncn(-c3ccccc3)c2=O)cc1SCC(F)(F)F [Example 351]		100	100	
3.09	3.13	Cc1cc(F)c(-n2nc(OCC(Cl)(Cl)Cl)n(C)c2=O)cc1[S+]([O-])CC(F)(F)F (centres unmarked) [Example 392]		90	100	efficacy (Boophilus microplus): 100%

Source: patent publication US9981940B2, “Aryl sulfide derivatives and aryl sulfoxide derivatives as acaricides and insecticides” (BAYER CROPSCIENCE AKTIENGESELLSCHAFT, priority 2013, dated 2018)
